Results as given in patent US7674826B2, “Use of a nutraceutical compositions in animal feed” (DSM IP Assets B.V., priority 2006, dated 2010).

How the values were obtained:
[1] = tested on: growing-fattening pig; assay: Bone resistance: maximal breaking force of metacarpal diaphysis sections under compression, after long-term feeding; assay type: in vivo; details: for Resistance (Newton at the breaking point), right metacarpals: mean ± SD
Text: The term “bone resistance” as used herein denotes the maximal force in measured in Newton (N) necessary to break the bone determined by a compression machine.
(§1) Environment humidity percentage throughout the experiment was 50%. […] Both diets were in mash form.
(§2) All the diets were given in a mash form.
(§3) At the end of the observation all the animals were slaughtered after electronarcosis for the determination of the bone resistance and mineralization. The collected bones were the right internal and external metacarpal. Samples were prepared from each of the collected bones immediately after slaughter. After careful removal of the soft tissue, a diaphysis section was obtained by sawing each bone. The obtained sections of about 3.5-cm long were immediately subjected to compression in order to determine the force in Newton necessary to break them (maximal-breaking force at the fracture point). The measurements were performed with a LR10K compression machine, using a XLC/10K/A1 force captor and a compression device TH23-196/AL (Lloyd Instruments, Fareham, UK). The broken bones were then dried in a drying oven at 105° C. during 24 hours and the dry matter (DM) was used for the determination of ash content, which was measured after 48 h incineration at 550° C. in a muffle furnace.
(§4) Statistical treatment of the results involved the calculation of the mean and of the standard deviation as well as a two-factor hierarchical analysis of variance. The mathematical model was: Yijk=μ+Ai+Bij+Zijk, where μ is the mean, Ai is the diet effect, Bij is the combined effect of the diet and animal or pen and Zijk is the residual term. The analysis of variance was followed by a Duncan multiple range test when a significant Ai effect without Bij effect was observed (Statistical methods, 8th edition, Iowa University Press, Ames, Snedecor and Cochran, 1989). These calculations were performed using the Statistical Analysis System (SAS, 1990).

[2] = tested on: pigs; details: diets with 0.5% or 1% benzoic acid, 32 + 91 days; statement covers all animals
Experimental: Room temperature was initially 27° C. and was lowered weekly by about 2° C. until 21-22° C.

[3] = tested on: growing-fattening pig; assay: Bone mineralization: ash content of dried metacarpal bone after incineration, after long-term feeding; assay type: in vivo; details: for Mineralization (% of ash in DM), right metacarpals: mean ± SD of 32 measurements
Experimental: The term “bone mineralization” as used herein denotes the percentage of ash after incineration of the bone compared to the dried bone matter (DM). Dry matter is defined as the weight of the bone sample after 24 hour in a drying oven compared to the initial weight of the sample.
as §1, §2, §3, §4

[4] = group B2: 0% 32 days, then 1% benzoic acid 91 days
[5] = group C2: 0.5% 32 days, then 0.5% benzoic acid 91 days
[6] = group D2: 0.5% 32 days, then 1% benzoic acid 91 days

## O=C(O)c1ccccc1 [benzoic acid]
[1]; all the supplemented groups (B2, C2, D2)
  Bone resistance versus controls (in words): significantly increased
[1]; group B2: 0% benzoic acid in diet 32 days, then 1% for 91 days
  Resistance (Newton at the breaking point), right metacarpals: 625 ± 163^(2)bd Newton
[1]; group C2: 0.5% benzoic acid in diet 32 days, then 0.5% for 91 days
  Resistance (Newton at the breaking point), right metacarpals: 621 ± 172^(2)d Newton
[1]; group D2: 0.5% benzoic acid in diet 32 days, then 1% for 91 days
  Resistance (Newton at the breaking point), right metacarpals: 597 ± 192^(2)d Newton
[2]
  Natural mortality during the experiment: no natural mortality was observed
  Symptoms of illness during the experiment: did not present any symptoms of illness
[3]; [4]
  Mineralization relative to controls (A2 = 100): (102)
  Mineralization (% of ash in DM), right metacarpals: 60.26 ± 1.31^(1)d % of ash in DM
[3]; group C2 (0.5% benzoic acid throughout), P<0.07
  Ash content of the bones versus controls (in words): numerically higher
[3]; [5]
  Mineralization relative to controls (A2 = 100): (102)
  Mineralization (% of ash in DM), right metacarpals: 60.06 ± 1.33^(1)cd* % of ash in DM
[3]; [6]
  Mineralization relative to controls (A2 = 100): (102)
  Mineralization (% of ash in DM), right metacarpals: 60.14 ± 1.09^(1)d % of ash in DM
[3]; groups B2 and D2 (1% benzoic acid during 91 days)
  Ash content of the bones versus controls (in words): significantly higher
